# Data: patent US20050065068A1, “Methods and compositions for reducing serum phosphate levels” (priority 1999, published 2005)
# Non-standard residues stand in square brackets, D forms with d. Residues, ends and D or L forms follow the SMILES beside them. No end group written: not given here. pS = N[C@@H](COP(=O)(O)O)C(=O)O
# Legend:
# [1] = system: ovariectomized female Sprague Dawley rats; experiment: Serum and urine chemistry in the ovariectomized rat osteoporosis model; format: in vivo; conditions: OVX rats; for Urine Ca^2+ / Serum AP (serum alkaline phosphatase) / Serum Ca^2+ / Serum Pi (serum inorganic phosphate): 200-208 μg/kg peptide oral daily for 84 days; for Serum AP (serum alkaline phosphatase) / Serum Ca^2+ / Serum Pi (serum inorganic phosphate): terminal sample Day 84
# From the text: Ovariectomized rats were chosen for the efficacy study of a series of peptides. After a six (6) day quarantine/acclimation period, forty (40) ovariectomized female Sprague Dawley outbred (Crl:CD®IGS BR) rats were randomly allocated into five experimental groups of eight animals each. A sixth group was composed of eight sham-operated Sprague Dawley rats. The experimental design consisted of four test-article groups and two vehicle control groups (one ovariectomized and one sham-operated). Each rat received a single daily oral dose for 84 days of either 0.9% Sodium Chloride for Injection (controls) or 200-208 μg/kg of peptide as specified in Table 1. Doses were based upon a target dose of 50 μg/animal/day and group mean body weights determined at study initiation (Day 0). “Sham” indicates sham-operated rats; and “OVX” indicates ovariectomized rats. The dose range of 200-208 μg/kg/day employed in the study represents the target dose (50 μg/animal/day) in animals weighing […] at study initiation. The test samples for groups 1, 2, 3, and 4 were dissolved in 0.9% Sodium Chloride for injection and administered at once. All dosing was accomplished by oral gavage (dose volume 1.0-1.5 mL, adjusted weekly for bodyweight gain). Certified Rodent Diet #5002 (Purina Mills, Inc., St. Louis, Mo.) was provided during the quarantine/acclimation period and throughout the study. Clinical signs were observed once daily throughout the quarantine/acclimation and treatment periods. Individual body weights were recorded at the initiation of the dosing, once weekly throughout the treatment phase, and at necropsy. Animals were sacrificed approximately 24 hours after the administration of the final dose (Day 84). Terminal whole blood samples were collected from each animal for serum chemistry (i.e. measurement of serum calcium and phosphorus) evaluations via terminal cardiocentesis. Femurs were submitted for post-mortem bone mechanical strength and composition analysis.
# [2] = system: ovariectomized female Sprague Dawley rats; experiment: Three-point bending mechanical strength test of the femur in the ovariectomized rat osteoporosis model; format: in vivo; conditions: right femur, Day 84, vs. Group 5
# From the text: Ovariectomized rats were chosen for the efficacy study of a series of peptides. After a six (6) day quarantine/acclimation period, forty (40) ovariectomized female Sprague Dawley outbred (Crl:CD®IGS BR) rats were randomly allocated into five experimental groups of eight animals each. A sixth group was composed of eight sham-operated Sprague Dawley rats. The experimental design consisted of four test-article groups and two vehicle control groups (one ovariectomized and one sham-operated). Each rat received a single daily oral dose for 84 days of either 0.9% Sodium Chloride for Injection (controls) or 200-208 μg/kg of peptide as specified in Table 1. Doses were based upon a target dose of 50 μg/animal/day and group mean body weights determined at study initiation (Day 0). “Sham” indicates sham-operated rats; and “OVX” indicates ovariectomized rats. The dose range of 200-208 μg/kg/day employed in the study represents the target dose (50 μg/animal/day) in animals weighing […] at study initiation. The test samples for groups 1, 2, 3, and 4 were dissolved in 0.9% Sodium Chloride for injection and administered at once. All dosing was accomplished by oral gavage (dose volume 1.0-1.5 mL, adjusted weekly for bodyweight gain). Certified Rodent Diet #5002 (Purina Mills, Inc., St. Louis, Mo.) was provided during the quarantine/acclimation period and throughout the study. Clinical signs were observed once daily throughout the quarantine/acclimation and treatment periods. Individual body weights were recorded at the initiation of the dosing, once weekly throughout the treatment phase, and at necropsy. Animals were sacrificed approximately 24 hours after the administration of the final dose (Day 84). Terminal whole blood samples were collected from each animal for serum chemistry (i.e. measurement of serum calcium and phosphorus) evaluations via terminal cardiocentesis. Femurs were submitted for post-mortem bone mechanical strength and composition analysis. The right femur of each animal was reserved for bone mechanical strength evaluation (i.e. three-point bending analysis). Femurs were placed on an apparatus in which two isolated points of the long bone were supported. Weight load was applied at the center of two supporting points toward the direction in which the bone is bent. […] Femurs were positioned with the anterior side toward the center load, and the posterior side toward the two supports. The loading was done in an Instron Model #1122 materials testing machine (Canton, Mass.). Testing was conducted with a displacement of 2.0 mm/minute. Load and displacement were recorded at 0.002 mm displacement intervals. Experiments were controlled using a computer-based data acquisition system running ASYST Scientific Software (Keithley-Metrabyte; Taunton, Mass.). The following data were generated: Maximum Load (in Newton, N); Initial Stiffness (in N/mm); Energy at Maximum (in Nmm) The value of the load was plotted against the deflection generating the load-deflection curve. Two points in the initial linear portion of the load-deflection curve were chosen by the operator at the time of testing. A line was constructed through the chosen points, the slope of which is the initial stiffness. The maximum load is the largest value of the load recorded during the flexural test. The energy at maximum is the area under the load-deflection curve up to the maximum load point.
molecule,measurement,setting,value
"N[C@@H](CO)C(=O)NCC(=O)N[C@@H](CO)C(=O)NCC(=O)N[C@@H](CO)C(=O)NCC(=O)N[C@@H](CO)C(=O)NCC(=O)N[C@@H](CO)C(=O)NCC(=O)N[C@@H](CO)C(=O)NCC(=O)N[C@@H](CO)C(=O)NCC(=O)O [(Ser-Gly)7, Ser-Gly-Ser-Gly-Ser-Gly-Ser-Gly-Ser-Gly-Ser-Gly-Ser-Gly] (H-SGSGSGSGSGSGSG-OH)",Urine Ca^2+,[1],26.7 ± 22.9 mg/dL
same,Serum AP (serum alkaline phosphatase),[1],134 ± 53 U/L
same,Serum Ca^2+,[1],10.8 ± 0.6 mg/dL
same,Serum Pi (serum inorganic phosphate),[1],8.8 ± 1.0 mg/dL
"Ser-Gly-Ser-Gly-Pse-Gly-Pse-Gly-Pse-Gly-Pse-Gly-Pse-Gly (SGSG[pS]G[pS]G[pS]G[pS]G[pS]G) [(Ser-Gly)2(Pse-Gly)5, Linear peptide, Pse = O-phosphoserine]",Urine Ca^2+,[1],29.5 ± 20.0 mg/dL
same,Serum AP (serum alkaline phosphatase),[1],121 ± 30 U/L
same,Serum Pi (serum inorganic phosphate),[1],9.2 ± 1.3 mg/dL
same,Energy at maximum compared with saline-treated ovariectomized controls (FIG. 6),[2],statistically significant increase
same,Initial bone stiffness compared with saline-treated ovariectomized controls (FIG. 4),[2],statistically significant increase
same,Maximum load compared with saline-treated ovariectomized controls (FIG. 5),[2],statistically significant increase
"N[C@@H](COP(=O)(O)O)C(=O)NCC(=O)N[C@@H](COP(=O)(O)O)C(=O)NCC(=O)N[C@@H](COP(=O)(O)O)C(=O)NCC(=O)N[C@@H](COP(=O)(O)O)C(=O)NCC(=O)N[C@@H](COP(=O)(O)O)C(=O)NCC(=O)N[C@@H](COP(=O)(O)O)C(=O)NCC(=O)N[C@@H](COP(=O)(O)O)C(=O)NCC(=O)O [(Pse-Gly)7, Pse-Gly-Pse-Gly-Pse-Gly-Pse-Gly-Pse-Gly-Pse-Gly-Pse-Gly] (H-[pS]G[pS]G[pS]G[pS]G[pS]G[pS]G[pS]G-OH)",Serum Ca^2+,[1],11.0 ± 0.5 mg/dL
"Ser-Gly-Ser-Gly-Ser-Gly-Ser-Gly-Ser-Gly-Pse-Gly-Pse-Gly (SGSGSGSGSG[pS]G[pS]G) [(Ser-Gly)5(Pse-Gly)2, Linear peptide, Pse = O-phosphoserine]",Urine Ca^2+,[1],26.6 ± 14.1 mg/dL
same,Serum AP (serum alkaline phosphatase),[1],118 ± 18 U/L
same,Serum Pi (serum inorganic phosphate),[1],7.9 ± 0.9 mg/dL
same,Serum phosphorus concentration compared with controls (FIG. 1),"[1]; oral daily for 84 days, Day 84, vs saline-treated OVX controls and sham-operated controls",equivalent to or even lower than sham-operated controls
same,Energy at maximum compared with saline-treated ovariectomized controls (FIG. 6),[2],statistically significant increase
same,Initial bone stiffness compared with saline-treated ovariectomized controls (FIG. 4),[2],statistically significant increase
same,Maximum load compared with saline-treated ovariectomized controls (FIG. 5),[2],statistically significant increase
